Assay results from US12708620B2, “Prodrugs and medical uses thereof” (priority 2018, dated 2026).
“Also recorded” adds a separate entry of the source.

Tests used:
[1] = system: pH2AX (Histone H2A.X, Phospho S139) in DMS 114 xenograft; test: DNA damage by pH2AX staining with pimonidazole colocalization; assay type: in vivo, BALB/c Nude Mice; settings: 6 hours post single 600 mg/kg
Description: To evaluate the impact of Cpd.11 Ms treatment on the induction of DNA damage, histological analysis of pH2AX staining and investigated colocalization of pH2AX and pimonidazole staining was performed in the small cell lung cancer model, DMS 114. DNA damage was assessed at 6 hours post a single administration of Cpd.11 Ms at 600 mg/kg. Pimonidazole Hydrochloride and pH2AX (Histone H2A.X, Phospho S139) antibodies are commercially available (Anti-Pimonidazole Hydrochloride, HP FITC Mab-1, HPI Hypoxyprobe Inc; Anti-Histone H2A.X (Phospho S139) antibody [EP854 (2) Y] ChIP Grade, ab81299, Abcam). From each xenograft sample, 3 non-sequential, 5 μm section levels with 50 μm spacing between each level were obtained. From each level, two or three serial sections were produced and collected on two or three slides depending upon the staining required: i) H&E and Pimonidazole or ii) H&E, Pimonidazole and pH2AX. Sections were then dried overnight at ~37° C. prior to staining. The H&Es were performed on a Leica ST4040 staining platform using harris haematoxylin and 1% eosin. Following antigen retrieval and subsequent protein blocking, the pH2AX antibody was incubated on the study tissue sections at a concentration of 1:48000 for 60 minutes. Following quenching of endogenous Horse Radish Peroxidase (HRP) activity using 3% hydrogen peroxide (aqueous), binding of pH2AX was visualised using a polymer based HRP driven detection system and ImmPACT DAB chromogen giving a brown reaction product at the site of antibody binding. A haematoxylin nuclear counterstain was then applied to the tissue sections. The Pimonidazole (FITC conjugated) antibody was incubated on the study tissue sections at a concentration of 1:5000 for 60 minutes. Following quenching of endogenous Horse Radish Peroxidase (HRP) activity using 3% hydrogen peroxide (aqueous), binding of Pimonidazole was visualised using an HRP conjugated rabbit anti-FITC secondary antibody (HPI Hypoxyprobe Inc, anti-FITC-HRP) and ImmPACT DAB chromogen giving a brown reaction product at the site of antibody binding. […]

SW1990 = test: in vitro cell culture sensitivity in anoxic conditions; assay type: cell-based, human
[2] = system: panel of cancer cell lines; test: formation rate of Cpd.11c and Cpd.11d metabolites in cancer cell lines; assay type: in vitro ADME, human
Description: FIG. 3: cytotoxicity of Cpd.11 Ms and metabolites in normoxic and anoxic conditions in a panel of human cancer cell lines. […] The same panel of cell lines has been used to calculate the formation rate of Cpd.11c and Cpd.11d metabolites (B). A panel of human cell lines isolated from lung cancer (A-427, […], NCI-460, NCI-H1975), pancreatic cancer (Hs 766T, BxPC-3, Capan-1), and breast cancer (MDA-MB-453, SK-BR-3, EFM-19, Hs578t) has been exposed to synthetic version of Cpd.11c and Cpd.11d metabolites, that present cytotoxic properties also in normoxic conditions (C). The average plating efficiency in the drug-free control wells was 43% under normoxic and 30% under anoxic conditions.

NCI-H69 tumor xenograft = test: lung cancer (SCLC) xenograft model; assay type: in vivo, BALB/c Nude Mice; settings: for Anti-tumor effect: 600 mg/kg IP, hypoxic status confirmed, methanesulfonate, 600 mg/kg
Description: All animal models were established as xenograft model in BALB/c Nude Mice (6-8 weeks old, 17-23 grams, maintained in standard conditions and diet), following approved IACUC (Institutional Animal Care and Use Committees) protocols. Cpd.11 Ms was formulated using 2% dimethyl sulfoxide (DMSO in water for injection, starting from a Cpd.11 Ms main preparation (100-60 mg/ml in 2% DMSO in water for injection).
After tumor cell inoculation, the animals were checked daily for morbidity and mortality. Before commencement of treatment all animals were weighed and the tumor volumes were measured using a caliper. The treatments were started when the mean tumor size reached approx. 250 mm^3. […] The date of tumor cell inoculation was denoted as day 0 (thus injections were performed at day 1, 2, 3, 4, and 5). At the time of routine monitoring, the animals were checked for any effects of tumor growth and treatments on normal behavior such as mobility, visual estimation of food and water consumption, body weight gain/loss (body weights were measured daily during the 5-day treatment and thrice weekly after treatment), eye/hair matting and any other abnormal effect. Death and observed clinical signs were recorded on the basis of the numbers of animals within each subset. Tumor volumes were measured daily during the 5-day treatment and thrice weekly after treatment in two dimensions using a caliper, and the volume was expressed in mm3 using the formula: V=0.5 a×b2 where a and b are the long and short diameters of the tumor, respectively. The entire procedures of dosing as well as tumor and body weight measurement were conducted in a Laminar Flow Cabinet. Individual mice were euthanized by cervical dislocation when the tumor size reached 1400-1600 mm3. The surrogate endpoint for survival was calculated and indicated as TVx4 (initial tumor volume times 4). Statistical analysis of difference in tumor volume among the groups was conducted at the end of experiment using Independent-Samples T Test. All data were analyzed in SPSS (Statistical Product and Service Solutions) version 18.0 (IBM, Armonk, NY, U.S.). P-values were rounded to three decimal places, with the exception that raw P-values less than 0.001 were stated as P<0.001. All tests were two-sided. P<0.05 was considered to be statistically significant.
For the MDA-MB-436 tumor (ATCC: HTB-130; Passage: P4) cells were maintained in vitro as a monolayer culture in L-15 medium supplemented with 10% heat inactivated fetal bovine serum at 37° C. in an atmosphere of 100% air. For NCI-H69 (ATCC: HTB-119; Passage: P3), tumor cells were maintained in vitro in RPMI1640 medium supplemented with 10% fetal bovine serum at 370C in an atmosphere of 5% CO2 in air. For PANC-1 (ATCC: CRL-1469; Passage: P2) tumor cells were maintained in vitro as a monolayer culture in DMEM medium supplemented with 10% heat inactivated fetal bovine serum at 37 °C in an atmosphere of 5% CO2 in air. The tumor cells were routinely sub-cultured twice weekly by trypsin-EDTA treatment. The cells growing in an exponential growth phase were harvested and counted for tumor inoculation. Each mouse was inoculated with 1×10^7 tumor cells (orthotopically at the right mammary fat pad for MDA-MB-436 model, or subcutaneously at the right flank region for both NCI-H69 model and PANC-1 model) in 0.1 ml of PBS mixed with Matrigel (1:1, Corning, #354234) for tumor development. […]

CCN1CCN(C(=O)c2cc(N(CCBr)CCOS(C)(=O)=O)c(S(C)(=O)=O)cc2[N+](=O)[O-])CC1.CS(=O)(=O)O [Cpd.11 Ms, 4-(5-((2-bromoethyl) (2-((methylsulfonyl)oxy)ethyl)amino)-4-(methylsulfonyl)-2-nitrobenzoyl)-1-ethylpiperazin-1-ium methanesulfonate]
DNA damage (pH2AX) in normoxic areas, treated vs vehicle treated animals [1]: not statistically significantly different
DNA damage (pH2AX), hypoxic (pimonidazole positive) vs normoxic (pimonidazole negative) areas in treated animals ([1]; P=0.023, methanesulfonate, 600 mg/kg): significantly higher DNA damage; also recorded: mostly detected in the hypoxic areas
DNA damage (pH2AX) in hypoxic (pimonidazole positive) areas, treated vs vehicle treated animals ([1]; P=0.038): significant increase in DNA damage
sensitivity in anoxic conditions in vitro (SW1990): highly Cpd.11 Ms-sensitive
conversion of Cpd.11 Ms into Cpd.11c and Cpd.11d (FIG. 3B) [2]: strong and rapid ratio of conversion
Anti-tumor effect (NCI-H69 tumor xenograft; single treatment cycle, listed as Cpd.11Ms): Strong impact,
Anti-tumor effect (NCI-H69 tumor xenograft; single treatment cycle): significant regression of the tumours
therapeutic response with alternative regimens (NCI-H69 tumor xenograft; repeated administration over 3 weeks): longer term tumor control
effects on body weight (NCI-H69 tumor xenograft; single treatment cycle, IP): absence of effects on body weight
median surrogate survival index (TVx4) in comparison to vehicle treated animals (NCI-H69 tumor xenograft; single treatment cycle, IP): doubled
